Measurements reported in patent US6468989B1, “Gel compositions containing metronidazole” (Dow Pharmaceutical Sciences, priority 2000, dated 2002).
Read-outs that look alike come from different tables or passages of the source. Each block holds one compound with its values, some of them ahead of it.

How the values were obtained:
[1] = Solubility of imidazole compounds in purified water, 4% HPCD and 4% HECD; format: physicochemical
Method: Six sample solutions were prepared as described in Example 1 except as follows. Two groups of three sample solutions each were prepared. […] The solubility of each of the samples was determined as shown in Table 5 and was compared to the solubility of the imidazole in purified water without a solubility enhancer.

[2] = Solubility of metronidazole in aqueous solutions with different HPCD concentrations, estimated by solution stability; format: physicochemical; details: 1-day storage at room temperature followed by 1-day storage at 5° C.
Method: Various solutions of hydroxypropyl-beta-cyclodextrin (HPCD) were prepared by combining a quantity of HPCD in water to yield the desired concentration of HPCD between 1% w/w and 15% w/w. To each HPCD solution, an excess amount of metronidazole was added. The solutions were placed in a shaker bath at about 60° C. for about 2 hours or more. After shaking, the samples were permitted to cool to room temperature and were stored at 5° C. […]
In accordance with the invention, stable aqueous metronidazole at the following concentrations may be obtained with the following concentrations of HPCD as shown in Table 1 and FIG. 1.

[3] = Solubilization of metronidazole by HPCD, niacinamide and their combination (visual, 1 week storage); format: physicochemical
Method: HPCD and niacinamide solutions were prepared and the concentrations of each to obtain a stable 1% metronidazole solution at 5° C. were determined as 5% and 3%, respectively. Then various combinations of HPCD and niacinamide concentrations in aqueous solution containing 1% metronidazole were prepared as in Example 1.
In the combination solutions, HPCD concentration was in the range of 0% to 5% and the concentration range of niacinamide was 0% to 3%. The solutions were kept at room temperature and 5° C. for a week to assess the maintenance of the dissolved state.
For solubilization effects of HPCD and niacinamide combinations, the concentrations of HPCD and niacinamide were determined in 1% metronidazole solutions, which were clear with no precipitate. Metronidazole solubility was visually determined after a week storage. In order to evaluate the solubilization capacity of the HPCD and niacinamide combinations, the niacinamide concentration required to make 1.5% metronidazole in 5% HPCD solution was determined by keeping the solution at 5° C. for 1 week.

[4] = cited from earlier work

% w/w solubility [1]: less than 0.01 % w/w
Increase in solubility versus purified water [1]: not measurable
SMILES: CCC(C)n1ncn(-c2ccc(N3CCN(c4ccc(OCC5COC(Cn6cncn6)(c6ccc(Cl)cc6Cl)O5)cc4)CC3)cc2)c1=O (stereo not shown) [Itraconazole, itraconazole]

% w/w solubility [1]: less than 0.01 % w/w
% w/w solubility ([1]; 4% HECD): 0.03-0.05 % w/w
% w/w solubility ([1]; 4% HPCD): 0.01-0.03 % w/w
SMILES: CC(=O)N1CCN(c2ccc(OCC3COC(Cn4ccnc4)(c4ccc(Cl)cc4Cl)O3)cc2)CC1 (stereo not shown) [Ketoconazole, ketoconazole]

Solubility of MTZ ([2]; 0.0 % w/w HPCD): 0.7 % w/w
Solubility of MTZ ([2]; 2.0 % w/w HPCD): 1.0 % w/w
Solubility of MTZ ([2]; 8.0 % w/w HPCD): 1.5 % w/w
Solubility of MTZ ([2]; 10.0 % w/w HPCD): 2.0 % w/w
Solubility of MTZ ([2]; 15.0 % w/w HPCD): 2.5 % w/w
Appearance of solution ([1]; 4% HECD and metronidazole solution): became yellow
Appearance of solution ([1]; 4% HPCD and metronidazole solution): remained clear and colorless
Niacinamide concentration that permitted a 1.5% metronidazole solution ([3]; 5% HPCD): 6%
Time the 1.5% metronidazole solution stayed clear with no precipitate ([3]; 5% HPCD and 6% niacinamide, 5° C.): 1 week
Precipitation of 1.5% metronidazole solution ([3]; 5% HPCD, no niacinamide, room temperature): showed a precipitate
HPCD concentration required to make a stable 1% metronidazole aqueous solution ([3]; HPCD alone, 5° C. for 1 week): 5%
Precipitation of aqueous solution containing 1% metronidazole ([3]; HPCD reduced to 4% or less, 5° C. for 1 week): showed a precipitation formation
HPCD concentration giving a stable 1% MTZ solution ([3]; in combination with 0.5% niacinamide): 1.0%
Niacinamide concentration giving a stable 1% MTZ solution ([3]; in combination with 1.0% HPCD): 0.5%
Niacinamide concentration required to make 1% metronidazole aqueous solution ([3]; niacinamide alone, 5° C. for 1 week): 3%
Precipitation of aqueous solution containing 1% metronidazole ([3]; niacinamide reduced to 2% or less, 5° C. for 1 week): showed a precipitation formation
SMILES: Cc1ncc([N+](=O)[O-])n1CCO [Metronidazole, 1-(2-hydroxyethyl)-2-methyl-5-nitroimidazole]

SMILES: C[C@H]1O[C@@H](O[C@H]2[C@@H](O)C[C@H](O[C@H]3[C@@H](O)C[C@H](O[C@H]4CC[C@@]5(C)[C@H](CC[C@@H]6[C@@H]5C[C@@H](O)[C@]5(C)[C@@H](C7=CC(=O)OC7)CC[C@]65O)C4)O[C@@H]3C)O[C@@H]2C)C[C@H](O)[C@@H]1O [digoxin]
Water solubility combined with BCD relative to combined with HPCD [4]: five times more water soluble
